Patent publication US6333176A (Degussa Aktiengesellschaft, priority 1994, dated 2001)
Read-outs that look alike come from different tables or passages of the source.

How the values were obtained:
Xanthomonas maltophilia = test: Inducibility of peptide amidase from Xanthomonas maltophilia; assay type: cell-based; details: for Activity (peptide amidase in raw extract) / Spec. activity (peptide amidase in raw extract): additive in the nutrient medium (amide 0.5%), 2 days, 30° C., 120 rpm
Experimental: 1 l Erlenmeyer flasks were provided with 200 ml of the nutrient medium used in the second part of the screening for the examinations of the inducibility of peptide amidase from Xanthomonas maltophilia. The amount of yeast extract was raised to 0.1% thereby and only one amide derivative added to 0.5% of the medium in each instance. In addition, media without the addition of amides and with 1.5% yeast extract were examined. Ac-DL-Met-NH2, leucine amide and carnitine amide were used as amides. The flasks were inoculated to 0.5% and agitated 2 days at 30° C. and 120 rpm. The obtention of the raw extracts took place as already described above.

[1] = target: T1, peptide amidase from Xanthomonas maltophilia (Stenotrophomonas maltophilia, UniProt Q8RJN5); test: Substrate spectrum of peptide amidase, enzymatic determination of the released ammonia; assay type: biochemical; details: substrate 10 mM, 18 mU peptide amidase per ml, 50 mM tris/HCl pH 7.5, 30° C., 3 hours
T1 construct: wild type, not recombinant
T1 sequence (Q8RJN5 34-540): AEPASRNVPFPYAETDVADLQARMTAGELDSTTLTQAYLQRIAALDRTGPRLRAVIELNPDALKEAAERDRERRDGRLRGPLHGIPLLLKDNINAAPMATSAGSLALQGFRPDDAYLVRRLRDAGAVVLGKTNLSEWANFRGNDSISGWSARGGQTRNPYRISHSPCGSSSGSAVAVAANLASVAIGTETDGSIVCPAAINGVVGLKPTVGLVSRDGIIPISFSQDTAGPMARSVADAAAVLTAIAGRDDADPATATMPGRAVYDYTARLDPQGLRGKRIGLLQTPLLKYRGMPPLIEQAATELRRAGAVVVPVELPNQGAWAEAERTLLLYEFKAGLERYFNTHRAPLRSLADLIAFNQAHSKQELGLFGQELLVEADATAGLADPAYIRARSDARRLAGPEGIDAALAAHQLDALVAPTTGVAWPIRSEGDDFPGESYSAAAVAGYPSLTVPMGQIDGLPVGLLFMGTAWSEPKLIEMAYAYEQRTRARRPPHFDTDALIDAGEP
Experimental: (§1) 18 mU of peptide amidase (purification state after the gel filtration) per ml test batch was used for the substrate spectrum of peptide amidase from Xanthomonas maltophilia. The concentration of the tested substrates was 10 mM in the reaction batch. Unless otherwise indicated, L-amino acid derivatives were used. The incubation took place in 50 mM tris/HCl, pH 7.5 at 30° C. for 3 hours. The reaction was stopped by heating for 5 minutes at 95° C. The determination of activity took place using enzymatic determination of the released ammonia (Bergmeyer, U. (1985): Methods of Enzymatic Analysis, p. 459, VCH Verlagsgesellschaft, Weinheim).

[2] = target: T1, peptide amidase from Xanthomonas maltophilia; test: biochemical; assay type: biochemical; details: for remaining activity at 10000 µM: read-out: residual activity
[3] = target: T1, peptide amidase from Xanthomonas maltophilia; test: Splitting of racemic mixtures of N-protected amino acid amides; assay type: biochemical; details: racemic substrate 10 mM, 20 U peptide amidase in 50 ml, 50 mM triethylammonium carbonate pH 7.5, 30° C.
Experimental: The tests for the splitting [separation] of racemic mixtures took place in 50 mM triethylammonium carbonate buffer, pH 7.5. The test batches a 50 ml with 20 U peptide amidase each were incubated at 30° C. Z-D,L-Ala-NH2, Ac-D,L-Met-NH2 and Ac-D,L-neopentylglycine amide (Ac-D,L-Npg-NH2) were available as substrates. The concentration of the substrates in the reaction batch was 10 mM. Specimens were taken at different times, the reaction stopped by heating for 5 minutes at 95° C. and the enantiomeric purity examined with HPLC.

[4] = target: T1, peptide amidase from Xanthomonas maltophilia; test: Influence of solvents on the peptide amidase activity; assay type: biochemical; details: pH 7.5, 90 minutes, 30° C.
Experimental: 200 μl enzyme solution (59 μg BSAeq/ml, purification stage after the gel filtration) were compounded in each instance with 700 μl of an appropriate mixture of 50 mM tris/solvent, pH 7.5 for the examinations of the influence of solvents on the peptide amidase activity. Dimethylformamide (DMF), acetone, ethanol and propan-1-ol, which were present in the reaction batch up to 70% by volumetric amount, were tested as solvents. The reaction was started by adding substrate Z-Gly-Tyr-NH2. The incubation took place for 90 minutes at 30° C. Then, aliquots of 100 μl of the reaction batches were provided with 100 μl glacial acetic acid and the enzyme activity determined as described in 1.4. […] It is apparent that at 20% DMF, 94% residual activity is still present and even at 30%, 59% is still present. In the presence of other solvents such as […] the enzyme distinctly loses activity but is nevertheless not completely inactivated at a content of 10% (residual activity 30%).

[5] = target: T1, peptide amidase from Xanthomonas maltophilia; test: Enzymatic conversion of unprotected amino acid amides, thin-layer chromatography; assay type: biochemical; details: substrate 10 mM
Experimental: as §1
The following thin-layer chromatographic methods were used for the analysis of the substrates and products cited in table 4d. To this end 1 μl of the stopped reaction batch was applied.

[6] = substrate: NC(=O)[C@H](Cc1ccc(O)cc1)NC(=O)CNC(=O)OCc1ccccc1; test: Enzyme kinetics of peptide amidase; assay type: biochemical, Xanthomonas maltophilia; details: other: substrate 0.4 to 20 mM, 50 mM tris/HCl pH 7.5, 2 hours, 30° C.
Experimental: The dependency of the reaction rate of peptide amidase from Xanthomonas maltophilia on the substrate concentration (Z-Gly-Tyr-NH2) was determined and the kinetic parameters determined from the data according to Marquardt. To this end, 50 μl enzyme solution a 27 μg BSAeq/ml were compounded with 400 μl 50 mM tris/HCl buffer, pH 7.5. The reaction was started by adding Z-Gly-Tyr-NH2 as substrate. The substrate was present in the reaction batches in a concentration range of 0.4 to 20 mM. The incubation took place for 2 hours at 30° C. The enzyme activity was then determined as described under 1.4.
The reaction conditions were selected with a view to the pH stability of peptide amidase from Xanthomonas maltophilia.
In order to stop the reaction 100 μl of the reaction solution was removed, compounded with 100 μl glacial acetic acid and filled with 1.4 ml HPLC mobile solvent. An aliquot of 20 μl was analyzed by HPLC. The conditions for the HPLC analysis of Z-Gly-Tyr-NH2 were as follows: […]

[7] = potential inhibitor 10 mM in the test, preincubation 1 h 30° C., Z-Gly-Tyr-NH2 10 mM, 2.5 h

CSCCC(NC(C)=O)C(N)=O (racemic) [Ac-D,L-Met-NH2, N-Ac-D,L-methionine amide] was tested, and the “Activity (peptide amidase in raw extract)” value (Xanthomonas maltophilia) was 88 mU/ml, the “Spec. activity (peptide amidase in raw extract)” value (shortened to “Spec. activity”) (Xanthomonas maltophilia) was 13 mU/mg BSAeq and the “change of the specific activity by addition of the inductor” value (Xanthomonas maltophilia; compared with medium without additive) was “doubled to tripled”. The “Relative conversion (conversion of N-acetyl amino acid amides, Table 4b)” value [1] was 102% and the “Relative conversion (influence of protective group and adjacent amino acid, Table 4c)” value [1] was 102%.

O[C@H](CS)[C@H](O)CS (relative stereo) [1,4-dithio-D,L-threitol] was tested, and the remaining activity at 10000 µM [2, 7] was 96%.

Work on c1cnc2c(c1)ccc1cccnc12 [1,10-phenanthroline] yielded a remaining activity at 10000 µM [2, 7] of 92%.

Molecule c1ccc(-c2ccccn2)nc1 [2,2'-dipyridyl] has a remaining activity at 10000 µM [2, 7] of 97%.

For CSCC[C@@H](NC(C)=O)C(=O)O [Ac-D-Met-OH], the “enantiomeric purity examined with HPLC (share of the enantiomer in the acid product)” value (from here on “enantiomeric purity examined with HPLC”) [3] was 0.2-0.3%.

For CC(=O)N[C@H](CC(C)(C)C)C(=O)O [Ac-D-Npg-OH], the “enantiomeric purity examined with HPLC” value [3] was 0.2%.

With CSCC[C@H](NC(C)=O)C(=O)O [Ac-L-Met-OH] the “enantiomeric purity examined with HPLC” value [3] was 99.7-99.8%.

CC(=O)N[C@@H](CC(C)(C)C)C(=O)O [Ac-L-Npg-OH, N-acetyl-L-neopentylglycine] was tested, and the “enantiomeric purity examined with HPLC” value [3] was 99.8%.

CCCCC[C@H](CC(=O)NO)C(=O)N[C@H](C(=O)N1CCC[C@H]1CO)C(C)C [Actinonine] showed a remaining activity at 10000 µM [2, 7] of 106%.

For C[N+](C)(C)CC(O)CC(N)=O (stereo not shown) [Carnitine amide, carnitine amide], the “Activity (peptide amidase in raw extract)” value (Xanthomonas maltophilia) was 30 mU/ml and the “Spec. activity” value (Xanthomonas maltophilia) was 7 mU/mg BSAeq.

With O.O.O.O.O.O.[Cl-].[Cl-].[Co+2] [CoCl2 *6 H2 O] the residual activity [2, 7] was 80%.

O.O.O.O.O.O=S(=O)([O-])[O-].[Cu+2] [CuSO4 *5 H2 O] showed a residual activity [2, 7] of 103%.

N[C@@H]1CONC1=O [D-cycloserine] showed a remaining activity at 10000 µM [2, 7] of 100%.

For CN(C)C=O [DMF, Dimethylformamide], the “residual activity of peptidase amidase in presence of solvent” value (from here on “residual activity of peptidase amidase”) ([4]; 20% solvent) was 94% and the “residual activity of peptidase amidase” value ([4]; 30% solvent) was 59%.

Work on O=C(O)CN(CCN(CC(=O)O)CC(=O)O)CC(=O)O [EDTA] yielded a remaining activity at 10000 µM [2] of 96%.

With NC(=O)[C@@H](N)CO [H-Ser-NH2] the “Conversion (unprotected amino acid amides)” value [5] was 0 and the “Conversion (unprotected amino acid amides, Table 4d)” value [5] was 0.

With C[C@@H](O)[C@H](N)C(N)=O [H-Thr-NH2] the “Conversion (unprotected amino acid amides)” value [5] was 0 and the “Conversion (unprotected amino acid amides, Table 4d)” value [5] was 0.

In the case of NC(=O)[C@@H](N)Cc1c[nH]c2ccccc12 [H-Trp-NH2], the “Conversion (unprotected amino acid amides)” value [5] is reported as 0 and the “Conversion (unprotected amino acid amides, Table 4d)” value [5] is reported as 0.

NC(=O)[C@@H](N)Cc1ccc(O)cc1 [H-Tyr-NH2] was tested, and the “Conversion (unprotected amino acid amides)” value [5] was 0 and the “Conversion (unprotected amino acid amides, Table 4d)” value [5] was 0.

For CC(C)[C@H](N)C(N)=O [H-Val-NH2], the “Conversion (unprotected amino acid amides)” value [5] was 0 and the “Conversion (unprotected amino acid amides, Table 4d)” value [5] was 0.

For N=C(N)NCCC[C@H](N)C(N)=O [H-arg-NH2], the “Conversion (unprotected amino acid amides)” value [5] was 0 and the “Conversion (unprotected amino acid amides, Table 4d)” value [5] was 0.

O.O.O.O.O.O.[Cl][Hg][Cl] [HgCl2 *6 H2 O] was tested, and the residual activity [2, 7] was 67%.

With CC(C)C[C@H](N)C(N)=O [Leu-NH2, leucine amide] the “Activity (peptide amidase in raw extract)” value (Xanthomonas maltophilia) was 15 mU/ml and the “Spec. activity” value (Xanthomonas maltophilia) was 3 mU/mg BSAeq.

In the case of O.O.O.O.O.O.[Cl][Ni][Cl] [NiCl2 *6 H2 O], the residual activity [2, 7] is reported as 93%.

For NCCc1ccc(S(=O)(=O)F)cc1 [Pefabloc], the “inhibition of the microbial peptide amidase (serine groups)” value [2] was “Inhibition”, the residual activity ([2]; inhibitor 0.3 mM, preincubation 1 h 30° C., Z-Gly-Tyr-NH2 10 mM) was 62% and the residual activity ([2]; inhibitor 0.1 Mm, preincubation 1 h 30° C., Z-Gly-Tyr-NH2 10 mM) was 82%. It also gave a residual activity [2, 7] of 0%.

NNC(N)=O [Semicarbazide] was tested, and the remaining activity at 10000 µM [2, 7] was 99%.

In the case of C[C@@H](NC(=O)OCc1ccccc1)C(=O)O [Z-D-Ala-OH], the “enantiomeric purity examined with HPLC” value [3] is reported as 0.4%.

In the case of C[C@H](NC(=O)OCc1ccccc1)C(=O)O [Z-L-Ala-OH], the “enantiomeric purity examined with HPLC” value [3] is reported as 99.6%.

In the case of CC(C)O [propan-2-ol], the “residual activity of peptidase amidase” value ([4]; 10% solvent) is reported as 30%.

B1: peptide amidase from Xanthomonas maltophilia (Stenotrophomonas maltophilia) (protein)
chain: AEPASRNVPFPYAETDVADLQARMTAGELDSTTLTQAYLQRIAALDRTGPRLRAVIELNPDALKEAAERDRERRDGRLRGPLHGIPLLLKDNINAAPMATSAGSLALQGFRPDDAYLVRRLRDAGAVVLGKTNLSEWANFRGNDSISGWSARGGQTRNPYRISHSPCGSSSGSAVAVAANLASVAIGTETDGSIVCPAAINGVVGLKPTVGLVSRDGIIPISFSQDTAGPMARSVADAAAVLTAIAGRDDADPATATMPGRAVYDYTARLDPQGLRGKRIGLLQTPLLKYRGMPPLIEQAATELRRAGAVVVPVELPNQGAWAEAERTLLLYEFKAGLERYFNTHRAPLRSLADLIAFNQAHSKQELGLFGQELLVEADATAGLADPAYIRARSDARRLAGPEGIDAALAAHQLDALVAPTTGVAWPIRSEGDDFPGESYSAAAVAGYPSLTVPMGQIDGLPVGLLFMGTAWSEPKLIEMAYAYEQRTRARRPPHFDTDALIDAGEP
notes: wild type, not recombinant
Work on B1 yielded a Km [6] of 820 µM.
